Measurements as given in article PMC5054363 (Scientific Reports, 2016).
*1 amine or outer side, *2 acyl side, *3 side chain or, on linkers, in order; H or OH if unused. Where a SMILES comes first, the peptide text is derived from it. Bridges are numbered along the chain shown (N, C = ends). [ ]: non-standard residue; d: D form. The star is where a group is joined. X1 = CC[C@H](C)[C@@H](N[*:1])[C@@H](O)CC(=O)O[C@H](C(=O)[C@H](C)C(=O)[*:2])C(C)C; NMeY = CN[C@@H](Cc1ccc(O)cc1)C(=O)O; dNMeL = CN[C@H](CC(C)C)C(=O)O; Pyruvoyl = CC(=O)C(=O)*

Experiments:
[1] = tested on: subcellular and chromatographic fractions of K-562 cell lysate; test: Binding of [14C]-plitidepsin to K-562 lysate fractions; details: 500 nM [14C]-plitidepsin with or without 10 μM unlabeled plitidepsin, 1 h, room temperature, subcellular fractions
Procedure: Figure 4 Identification of the plitidepsin-binding protein in a K-562 cells lysate. […] In the horizontal axis “P” and “S” mean “pellet” and “supernatant”, respectively, with the figure aside denoting the relative centrifugal force (in thousands of g) used to obtain such fraction. Data (in dpm per mg of protein) represent the mean of three independent samples with error bars showing S.D. * means p < 0.05. (C) Anion-exchange chromatography on DEAE, flow rate 5 mL/min. (D) Cation-exchange chromatography on SP, flow rate 2.5 mL/min. (E) Size exclusion chromatography on Superdex 200, flow rate 4 mL/min. Representative fractions (4-mL) from each portion of the eluates were analyzed for their binding to [^14C]-plitidepsin in the presence (grey bars, non-specific binding) or absence (black bars, total binding) of a 20-fold excess of unlabeled drug. Only fractions showing significant specific binding to the radioligand were pooled and progressed to the next chromatographic step. In all cases absorbance is expressed in mAU and conductivity in mS/cm.
The rest of the peptides detected in this material corresponded to fragments whose sequences are common to both isoforms, thus discarding the presence of any other protein.
After 1 h incubation at room temperature 400 μL of each tube were withdrawn and processed as described above.

[2] = target: eEF1A1 purified from rabbit liver (Oryctolagus cuniculus, UniProt P68105); details: saturation binding, [14C]-plitidepsin, 1 h, room temperature, triplicate, Swillens fit (Supplementary Figure 4)
Chain of eEF1A1 purified from rabbit liver (P68105 whole entry, canonical isoform): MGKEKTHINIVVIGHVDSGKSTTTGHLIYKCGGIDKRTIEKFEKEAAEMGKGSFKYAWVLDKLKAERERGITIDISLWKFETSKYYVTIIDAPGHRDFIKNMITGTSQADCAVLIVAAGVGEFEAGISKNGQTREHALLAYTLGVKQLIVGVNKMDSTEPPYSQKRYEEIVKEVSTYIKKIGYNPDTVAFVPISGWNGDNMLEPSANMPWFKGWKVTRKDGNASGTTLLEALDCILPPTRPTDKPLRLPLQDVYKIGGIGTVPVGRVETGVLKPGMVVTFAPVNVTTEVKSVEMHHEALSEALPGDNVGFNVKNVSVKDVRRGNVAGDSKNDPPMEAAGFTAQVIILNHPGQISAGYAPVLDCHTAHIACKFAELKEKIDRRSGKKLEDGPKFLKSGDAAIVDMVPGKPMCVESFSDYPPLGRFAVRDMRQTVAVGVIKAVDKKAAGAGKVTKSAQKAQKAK
Procedure: All samples in binding assays were tested in triplicate. […] After 1 h incubation at room temperature, 450 μL were withdrawn, filtered through GF/C filters (Millipore, Bedford, CA) and washed three times with the same buffer used for the incubation. Filters were then removed, dried and their radioactivity was finally counted as a measurement of total (specific and non-specific) bound drug. […] Scintillation counting was transformed into concentration values considering the specific activity of the radioligand and the sample volume. The concentration of bound radioligand was related to the total amount of radioligand in the sample using the expression derived by Swillens[12] to account for ligand depletion when the concentration of protein was similar to that of radioligand:
was purified from rabbit liver as described in ( 48) . Protein and radioligand wer e
incubated for 1 h at room temperature and samples were processed as described in the

both eEF1A isoforms = details: cited from earlier work
Description: (§1) Until now, very few chemical entities have been identified as modulators of eEF1A2. […] Other authors also reported the discovery of several flavonoids as well as phenanthridones (e.g ...

eEF1A-ribosome complex = details: binding to the eEF1A-ribosome complex; cited from earlier work
Description: as §1

[3] = target: EF1A isolated from rabbit reticulocytes; details: cited from earlier work
Description: as §1

protein synthesis = details: cited from earlier work

## CC[C@H](C)[C@H]1NC(=O)[C@@H](NC(=O)[C@@H](CC(C)C)N(C)C(=O)[C@@H]2CCCN2C(=O)C(C)=O)[C@@H](C)OC(=O)[C@H](Cc2ccc(OC)cc2)N(C)C(=O)[C@@H]2CCCN2C(=O)[C@H](CC(C)C)NC(=O)[C@@H](C)C(=O)[C@H](C(C)C)OC(=O)C[C@@H]1O [[^14C]-plitidepsin] (Pyruvoyl-P[dNMeL]T[X1]LP[NMeY](Me); ester 3-C (inferred))
[1]; pellets
  binding to pellets: non-specifically
[1]; soluble
  binding to soluble fractions: retained by the soluble fractions
[2]
  Kd: 0.183 ± 0.032 µM

## O=C1N[C@@H]2C(=C[C@H](O)[C@@H](O)[C@H]2O)c2cc3c(c(O)c21)OCO3 [narciclasine]
Both eEF1A isoforms
  binding to eEF1A isoforms: selectively bind to both eEF1A isoforms

## O=C1N[C@H]2[C@H](O)[C@H](O)[C@@H](O)[C@H](O)[C@@H]2c2cc3c(c(O)c21)OCO3 [pancratistatine]
Both eEF1A isoforms
  binding to eEF1A isoforms: selectively bind to both eEF1A isoforms

## didemnin B
eEF1A-ribosome complex
  Kd: 4 µM
[3]; binding to EF1A
  Kd: 200 µM
[3]; isoform not specified
  interaction with eEF1A: interact with eEF1A
Protein synthesis
  protein synthesis inhibition: only at μM concentrations
